Here are results for 2 compounds from US6528534B2 (Millennium Pharmaceuticals, Inc., priority 1995, dated 2003).

Data set [1] relates to human platelet-rich plasma. The data set is described as follows: Platelet aggregation assay, Aggregation-Human PRP/ADP. Conditions: inhibition of ADP-induced aggregation of human platelet-rich plasma. The data set is classed as cell-based. As for the experimental part: No. 2—The Platelet Aggregation Assay
In addition to the ELISA IIb-IIIa assay previously described the Aggregation-Human PRP/ADP Assay is useful for evaluating therapeutic compounds.
Platelet-rich plasma was prepared from healthy human volunteers for use in determining inhibition of platelet aggregation by the compounds. Blood was collected via a 21-gauge butterfly cannula, using a two-syringe technique into 1/10 volume of 3.8% trisodium citrate.
Platelet-rich plasma was prepared at room temperature by centrifugation of the citrated whole blood at 100×g for twelve minutes. The platelet rich plasma contained approximately 200-400,000 platelets/μl.
Platelet-poor plasma was prepared by centrifugation of citrated whole blood at 12,000×g for 2 minutes.
Platelet aggregation was assayed in a 4-channel platelet aggregatiob profiler (PAP-4, Biodata, Hatboro, Pa.) according to the manufacturers directions. Inhibition of platelet aggregation was studied by adding varying amounts of adenosine diphosphate (ADP) to stirred human platelet-rich plasma. Specifically, the human platelet-rich plasma was incubated with the compound being tested for 1 minute at 37° C. prior to the addition of a variety of aggregating agents most often ADP 5 μM, but also 1 μg/ml collagen, 1 μM U46619 and 0.3 μM platelet activating factor.

A further data set addresses T1, GPIIb-IIIa (Homo sapiens, UniProt P05106+P08514).
T1 construct: Purified platelet GPIIb-IIIa receptor was prepared as described by Fitzgerald; from tissue; host or cells: platelets
The data set is described as follows: ELISA IIb-IIIa assay (fibrinogen binding to immobilized GPIIb-IIIa). Conditions: inhibition of biotinylated fibrinogen binding to plate-coated purified platelet GPIIb-IIIa receptor. The method, then: No. 1—The ELISA IIb-IIIa Assay:
In the following assay, GPIIb-IIIa is prepared in purified form, by a method such as described by Fitzgerald, L. A., et al., Anal Biochem (1985) 151:169-177, (the disclosure of which is incorporated herein by reference). GPIIb-IIIa is coated onto microtiter plates. The coated support is then contacted with fibrinogen and with the test material (e.g., compounds of Formula I) and incubated for a sufficient time to permit maximal binding of fibrinogen to the immobilized GPIIb-IIIa. Fibrinogen is typically provided at a concentration of about 5-50 nM and the test material can, if desired, be added at a series of dilution. Typical incubations are 2 to 4 hours at 25° C., the time and temperature being interdependent.
After incubation, the solution containing the fibrinogen and test material is removed and the level of binding of fibrinogen measured by quantitating bound fibrinogen to GPIIb-IIIa. Any suitable means of detection may be used, but it is convenient to employ labeled fibrinogen, for example using biotinylated labels. Such methods are well known in the art.
A. Description of Assays—Plate Assays
Purified platelet GPIIb-IIIa receptor was prepared as described by Fitzgerald, L. A., et al., Anal Biochem (1985) 151:169-177 (1985). Vitronectin receptor was prepared as described by Smith, J. W., J. Biol Chem (1988) 263:18726-18731. After purification, the receptors were stored in 0.1% Triton X-100 at 0.1-1.0 mg/ml.
The receptors were coated to the wells of 96-well flat-bottom ELISA plates (Linbro EIA-Plus microtiter plate, Flow Laboratories) after diluting 1:200 with a solution of 20 mM Tris-HCl, 150 mM NaCl, 1 mM CaCl2, pH 7.4, to reduce the Triton X-100 concentration to below its critical micellar concentration and adding an aliquot of 100 ul to each well. The wells were all allowed to incubate overnight at 4° C., and then aspirated to dryness. Additional sites were blocked by the addition of bovine serum albumin (BSA) at 35 mg/ml in the above buffer for two hours at 30° C. to prevent nonspecific binding. The wells were then washed once with binding buffer ([…] Tris-HCl, 100 mM NaCl 2 mM CaCl2, 1 mg/ml BSA).
The corresponding ligands (fibrinogen, von Willebrand Factor, or vitronectin) were conjugated to biotin using commercially available reagents and standard protocols. The labeled ligands were added to the receptor-coated wells at final concentration of 10 nM (100 ul/well) and incubated for 3 hours at 25° C. in the presence or absence of the test samples. After incubation, the wells are aspirated to dryness and bound ligand is quantitated.
The bound protein is detected by the addition of antibiotin antibody conjugated to alkaline phosphatase followed by addition of substrate (p-nitrophenyl phosphate), and determination of the optical density of each well at […]. Decreased color development is observed in wells incubated with test samples which inhibit binding of ligand to receptor.

T1 sequence (P08514 32-887 limits assumed): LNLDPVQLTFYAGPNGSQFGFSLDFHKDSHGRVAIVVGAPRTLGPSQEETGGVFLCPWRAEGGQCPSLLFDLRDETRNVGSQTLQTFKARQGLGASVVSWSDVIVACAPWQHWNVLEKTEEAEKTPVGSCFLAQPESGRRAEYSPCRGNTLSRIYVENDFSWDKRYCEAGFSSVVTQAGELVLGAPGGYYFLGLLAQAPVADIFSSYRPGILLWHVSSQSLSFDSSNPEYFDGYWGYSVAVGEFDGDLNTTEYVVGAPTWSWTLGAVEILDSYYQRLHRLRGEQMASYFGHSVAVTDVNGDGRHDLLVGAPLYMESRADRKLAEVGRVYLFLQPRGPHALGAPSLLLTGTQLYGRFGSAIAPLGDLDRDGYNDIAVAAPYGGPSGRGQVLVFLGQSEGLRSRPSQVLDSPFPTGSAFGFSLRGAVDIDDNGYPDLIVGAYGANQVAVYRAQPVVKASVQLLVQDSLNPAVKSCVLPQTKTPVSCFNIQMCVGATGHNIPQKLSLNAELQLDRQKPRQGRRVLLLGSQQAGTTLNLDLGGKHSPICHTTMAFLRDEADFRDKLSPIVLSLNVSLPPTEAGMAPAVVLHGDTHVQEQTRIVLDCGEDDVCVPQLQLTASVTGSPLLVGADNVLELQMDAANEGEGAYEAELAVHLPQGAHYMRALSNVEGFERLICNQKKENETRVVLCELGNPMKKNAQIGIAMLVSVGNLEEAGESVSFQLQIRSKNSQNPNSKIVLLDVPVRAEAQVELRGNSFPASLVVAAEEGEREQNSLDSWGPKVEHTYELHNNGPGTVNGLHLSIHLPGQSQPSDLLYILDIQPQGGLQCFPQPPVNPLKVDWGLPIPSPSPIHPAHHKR
T1 sequence (P08514 891-1039 limits assumed): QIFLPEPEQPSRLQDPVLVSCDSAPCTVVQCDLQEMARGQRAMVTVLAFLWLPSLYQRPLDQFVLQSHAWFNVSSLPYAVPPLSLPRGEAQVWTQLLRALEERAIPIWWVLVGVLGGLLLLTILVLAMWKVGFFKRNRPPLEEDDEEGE
T1 sequence (P05106 27-788): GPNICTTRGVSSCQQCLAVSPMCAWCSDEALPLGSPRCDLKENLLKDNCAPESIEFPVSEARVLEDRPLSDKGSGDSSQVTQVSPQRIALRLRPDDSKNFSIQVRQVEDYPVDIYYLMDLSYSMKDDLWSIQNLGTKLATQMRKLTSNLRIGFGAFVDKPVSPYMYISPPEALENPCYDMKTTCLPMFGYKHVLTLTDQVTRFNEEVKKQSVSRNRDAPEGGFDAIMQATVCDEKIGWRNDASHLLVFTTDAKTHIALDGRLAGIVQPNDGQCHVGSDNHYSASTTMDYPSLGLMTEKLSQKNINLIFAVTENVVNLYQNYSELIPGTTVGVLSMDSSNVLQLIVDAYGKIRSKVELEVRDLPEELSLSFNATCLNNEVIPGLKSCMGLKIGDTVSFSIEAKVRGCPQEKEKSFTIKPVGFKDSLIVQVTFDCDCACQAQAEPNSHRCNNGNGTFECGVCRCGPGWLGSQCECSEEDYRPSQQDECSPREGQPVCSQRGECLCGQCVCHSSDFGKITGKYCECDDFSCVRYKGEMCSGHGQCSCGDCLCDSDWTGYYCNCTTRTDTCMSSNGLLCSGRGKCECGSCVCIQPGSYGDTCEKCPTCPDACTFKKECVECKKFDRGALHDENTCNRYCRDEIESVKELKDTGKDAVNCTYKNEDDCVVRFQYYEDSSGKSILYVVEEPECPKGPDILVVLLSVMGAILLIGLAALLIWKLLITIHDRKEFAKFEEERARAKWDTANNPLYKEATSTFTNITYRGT

On to `N=C(N)c1ccc(CC(=O)NC2CCC3(CC2)CN(CC(=O)O)C(=O)O3)cc1` (stereo not drawn) [Example 35, (8-(2-(4-(Aminoiminomethyl)phenyl)acetamido)-2-oxo-1-oxa-3-aza-spiro[4.5]dec-3-yl)acetic Acid], for which the melting point lay within 193 to 196 °C. This compound displayed an IC50 in data set [1] of 770 nM. This compound registered an IC50 at GPIIb-IIIa of 190 nM.
In the case of `N=C(N)c1ccc(C(=O)NC2CCC3(CC2)CN(CC(=O)O)C(=O)O3)cc1` (stereo not drawn) [Example 36, (8-(4-(Aminoiminomethyl)benzamido)-2-oxo-1-oxa-3-aza-spiro[4.5]dec-3-yl)acetic Acid], the melting point lay in the range of 280 to 284 °C. This compound came in with an IC50 in data set [1] of 510 nM. Besides, on GPIIb-IIIa, the IC50 came out at 170 nM.

What is called IC50 is the concentration that gives 50% inhibition. Broadly, the melting point is the temperature of the solid-liquid transition.
